# Patent US11352352B2, “Aminopyrimidine compound, preparation method therefor and use thereof” (BEIJING ADAMADLE BIOTECHNOLOGY LIMITED LIABILITY COMPANY, priority 2017, dated 2022)
# Key:
# NCI-H1975 = assay: Cell proliferation inhibition experiment, CellTiter-Glo (CTG) method; format: cell-based; settings: for IC50: Homo sapiens, NCI-H1975, 72 h, NCI-H1975 cells, CTG, 3 days; for A-431/NCI-H1975 Selectivity: ratio of A-431 IC50 to NCI-H1975 IC50
# Procedure, shortened: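 NCI-H1975 cells with viability above 90% by trypan blue were seeded at 90 μL per well in black 96-well plates and incubated overnight at 37° C., 5% CO2. Compounds were added at nine concentrations in triplicate, and viability was measured with CellTiter-Glo luminescence on EnVision. IC50 came from non-linear S-curve fitting in GraphPad Prism 5.0.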
# PC-9 = assay: as above; format: cell-based; settings: Homo sapiens, PC-9, 72 h, PC-9 cells, 3 days
# Procedure, shortened: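 Cells in log-phase growth (viability above 90% by trypan blue) were seeded at 90 μL per well in black-walled, clear-bottom 96-well plates and incubated overnight at 37° C., 5% CO2. A T0 plate was read the next day. Test compounds were added at nine concentrations in triplicate with a solvent control. Viability was measured by CellTiter-Glo luminescence on EnVision, and IC50 came from non-linear S-curve fitting in GraphPad Prism 5.0.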
# A-431 = assay: as above; format: cell-based; settings: Homo sapiens, A-431, 72 h, A-431 cells, 3 days
# Procedure, shortened: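 IC50 values come from sigmoidal dose-response fits of percent survival, measured by CellTiter-Glo luminescence after 3 days' culture with compound. Nine-point, threefold series in triplicate, starting at 30 μM for A-431 and at 1.111 μM for NCI-H1975 and PC-9.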
# P-gp = molecular target: T1, P-gp (Homo sapiens, UniProt P08183); assay: P-gp substrate evaluation experiment (MDCKII-MDR1 Transwell drug penetration test); format: in vitro ADME; settings: dog, MDCK-MDR1, pH 7.4; read-out: ER (Efflux Ratio)
# T1 construct: expressed in transfected cells; host or cells: MDCKII-MDR1 (MDCKII canine kidney cells expressing MDR1)
# T1 sequence (P08183 whole entry): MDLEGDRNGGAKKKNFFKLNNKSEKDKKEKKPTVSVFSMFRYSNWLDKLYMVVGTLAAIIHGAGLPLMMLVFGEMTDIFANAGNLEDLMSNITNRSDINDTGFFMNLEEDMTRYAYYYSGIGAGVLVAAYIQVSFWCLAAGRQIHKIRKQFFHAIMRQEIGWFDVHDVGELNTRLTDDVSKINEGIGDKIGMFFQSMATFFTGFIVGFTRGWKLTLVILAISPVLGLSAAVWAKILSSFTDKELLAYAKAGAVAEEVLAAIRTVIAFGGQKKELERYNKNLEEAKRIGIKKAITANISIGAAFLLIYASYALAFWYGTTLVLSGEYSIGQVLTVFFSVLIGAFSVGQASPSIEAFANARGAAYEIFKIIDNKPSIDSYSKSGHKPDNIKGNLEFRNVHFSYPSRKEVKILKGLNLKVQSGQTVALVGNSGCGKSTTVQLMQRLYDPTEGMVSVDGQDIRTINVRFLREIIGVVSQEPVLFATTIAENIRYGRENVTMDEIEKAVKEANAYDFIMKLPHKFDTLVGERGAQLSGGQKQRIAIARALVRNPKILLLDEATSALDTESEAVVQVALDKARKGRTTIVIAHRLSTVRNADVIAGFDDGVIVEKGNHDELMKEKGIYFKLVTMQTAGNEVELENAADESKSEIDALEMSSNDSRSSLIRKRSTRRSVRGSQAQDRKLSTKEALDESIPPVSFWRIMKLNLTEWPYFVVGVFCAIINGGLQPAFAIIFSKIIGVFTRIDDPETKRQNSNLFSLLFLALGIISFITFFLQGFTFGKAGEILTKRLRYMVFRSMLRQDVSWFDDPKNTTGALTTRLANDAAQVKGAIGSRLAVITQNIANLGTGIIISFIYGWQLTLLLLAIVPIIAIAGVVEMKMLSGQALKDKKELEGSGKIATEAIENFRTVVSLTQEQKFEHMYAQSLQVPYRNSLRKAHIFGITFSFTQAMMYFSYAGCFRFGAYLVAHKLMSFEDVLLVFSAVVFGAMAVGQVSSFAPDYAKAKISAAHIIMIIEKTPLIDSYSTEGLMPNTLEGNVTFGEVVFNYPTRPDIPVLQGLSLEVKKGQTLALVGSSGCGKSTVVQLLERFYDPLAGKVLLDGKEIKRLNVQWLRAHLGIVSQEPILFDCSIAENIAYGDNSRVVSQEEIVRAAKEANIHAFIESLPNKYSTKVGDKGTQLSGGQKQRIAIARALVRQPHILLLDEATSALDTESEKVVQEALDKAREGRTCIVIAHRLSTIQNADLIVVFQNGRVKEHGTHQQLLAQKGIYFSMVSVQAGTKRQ
# Description: P-gp Substrate Evaluation Experiment
# Cell Culture • 1) High glucose DMEM medium containing L-glutamine was used and 10% fetal bovine serum, 0.1 mg/mL streptomycin and 0.6 mg/mL penicillin were added. • 2) MDCKII-MDR1 was cultured in a T-75 cell culture bottle. The incubator was set at the condition of 37° C., 5% CO2 and 95% relative humidity. Cells could be inoculated in Transwell when the cell confluence reached 70-90%. • 3) Before cell plant, 50 μL cell culture medium was added to each well in the upper chamber of the Transwell, and […] cell culture medium was added to the lower chamber of the Transwell.
# Inoculation of MDCKII-MDR1 Cells • 1) Cell suspension was added to the upper chamber of the 96-well Transwell plate with […] each well, and the final inoculation density was 5.45×10^5 cells/cm^2. • 2) The medium was changed 48 hours after inoculation, the culture was carried out for 4-7 days, and the medium was changed every other day.
# Evaluation of Cell Monolayer Integrity • 1) After 4-7 days of culture, MDCKII-MDR1 and MDKII should merge and differentiate completely. At this time, they could be applied to penetration test. • 2) The resistance of cell monolayer was measured by a resistance meter (Millipore, USA) and the resistance of each well was recorded. • 3) After finishing the detection, the Transwell plate was put back into the incubator. • 4) Resistance value was calculated: Resistance measured (ohms)×layer area (cm^2)=TEER value (ohm·cm^2)
# If TEER value was less than 42 ohms·cm^2, the well can not be used for penetration testing.
# Drug Penetration Test • 1) The MDCKII-MDR1 Transwell plate was taken out from the incubator. The cell monolayer was rinsed with HBSS buffer (25 mM HEPES, pH 7.4) twice and incubated for 30 minutes at 37° C. • 2) The transport rate of compounds from the top to the bottom was determined. […] 70 μL supernatant was drawn, diluted with equal volume of water and then subjected to LC-MS/MS analysis. All samples were prepared in three parallel ways. • 6) The cell monolayer integrity after 2-hour incubation was evaluated by leakage of fluorescent yellow, HBSS (25 mM HEPES, pH 7.4) was used to dilute the stock solution of fluorescent yellow till the final concentration was 100 μM. 100 μL fluorescent yellow solution was added to each well in the upper chamber of the Transwell plate and 300 μL HBSS (25 mM HEPES, pH 7.4) was added to each well in the lower chamber of the Transwell plate. After incubation at 37° C. for 30 minutes, 80 μL solution was drawn respectively from each well in the upper and lower chamber to a new 96-well plate. The fluorescence was determined at 485 nm as excitation wavelength and 530 nm as emission wavelength by using a microplate reader.
# Data calculation was carried out through Excel, the apparent permeability index (Papp, cm/s) of compounds was calculated through the formula shown as follow: […]
# wherein, the membrane area in the formula is the membrane area of Transwell-96 plate (0.143 cm^2); the unit of incubation time is second (s).
# Efflux ratio was calculated through the formula shown as follow: […]
IC50 (NCI-H1975),IC50 (PC-9),IC50 (A-431),efflux ratio at 2 h (P-gp),SMILES,A-431/NCI-H1975 Selectivity (NCI-H1975)
8 nM,13.1 nM,746 nM,55.7,C=CC(=O)Nc1cc(Nc2cc(-c3ccc4c(cnn4C)c3)ncn2)c(OC)cc1N1CCC(N2CCN(C(C)=O)CC2)CC1 [compound 129],93.3
9.6 nM,14.8 nM,578 nM,51.7,COc1cc(N(C)CCN(C)C)c(NC(=O)/C=C/CN(C)C)cc1Nc1cc(-c2ccc3c(cnn3C)c2)ncn1 [compound 131],60.2
16.8 nM,12.3 nM,946 nM,2.17,C=CC(=O)Nc1cc(Nc2cc(-c3ccc4c(cnn4C)c3)ncn2)c(OC)cc1N(C)CCN(C)C(C)C [compound 138],56.3
6.8 nM,16.4 nM,572 nM,11.6,C=CC(=O)Nc1cc(Nc2cc(-c3ccc4c(cnn4C)c3)ncn2)c(OC)cc1N1CCC(N2CCCCC2)CC1 [compound 144],84.1
13.6 nM,6 nM,874 nM,0.93,C=CC(=O)Nc1cc(Nc2cc(-c3ccc4cnn(C)c4c3)ncn2)c(OC)cc1N1CCC(N2C[C@@H](C)O[C@@H](C)C2)CC1 [compound 155],64.2
9.4 nM,4.9 nM,680 nM,15.3,C=CC(=O)Nc1cc(Nc2cc(-c3ccc4cnn(C)c4c3)ncn2)c(OC)cc1N1CCC(N2CCCC2)CC1 [compound 158],72.4
12.6 nM,23.2 nM,591 nM,34.4,C=CC(=O)Nc1cc(Nc2cc(-c3ccc4cnn(C)c4c3)ncn2)c(OC(F)F)cc1N1CCC(N2CCCC2)CC1 [compound 164],46.9
6.8 nM,21.5 nM,584 nM,23.1,C=CC(=O)Nc1cc(Nc2cc(-c3ccc4c(cnn4C)c3)ncn2)c(OC(F)F)cc1N1CCC(N(CC)CC)CC1 [compound 168],85.9
18.6 nM,16.3 nM,954 nM,43.9,C=CC(=O)Nc1c(N(C)CCN(C)C)cc(OC)c(Nc2cc(-c3ccc4cnn(C)c4c3)ncn2)c1F [compound 172],51.3
22.7 nM,7.3 nM,1050 nM,32.2,C=CC(=O)Nc1cc(Nc2cc(-c3ccc4cnn(C)c4c3)ncn2)c(OC)cc1N1CCC(N(C)C)CC1 [compound 173],46.5
21.2 nM,4.8 nM,1080 nM,3.98,C=CC(=O)Nc1cc(Nc2cc(-c3ccc4cnn(C)c4c3)ncn2)c(OC(F)F)cc1N(C)CCN(C)C [compound 176],50.9
16.2 nM,2.9 nM,984 nM,17.1,C=CC(=O)Nc1cc(Nc2cc(-c3ccc4cnn(C)c4c3)ncn2)c(OC)cc1N1CCC(N2CCCCC2)CC1 [compound 179],60.7
25.1 nM,3.8 nM,894 nM,3.07,C=CC(=O)Nc1cc(Nc2cc(-c3ccc4cnn(C)c4c3)ncn2)c(OC)cc1N(C)CCN(C)CC [compound 180],35.6
8.1 nM,7.2 nM,982 nM,6.51,C=CC(=O)Nc1cc(Nc2cc(-c3ccc4cnn(C)c4c3)ncn2)c(OC)cc1N1CCC(N2CCC(OC)C2)CC1 (centres unmarked) [compound 203],121.2
8.1 nM,12.1 nM,773 nM,5.87,C=CC(=O)Nc1cc(Nc2cc(-c3ccc4c(cnn4C)c3)ncn2)c(OC)cc1N1CCC(N2CC(OC)C2)CC1 [compound 206],95.4
10.4 nM,11.7 nM,983 nM,11.4,C=CC(=O)Nc1cc(Nc2cc(-c3ccc4c(cnn4C)c3)ncn2)c(OC)cc1N1CCC(N2CCN(C3COC3)CC2)CC1 [compound 210],94.5
12.5 nM,12.7 nM,1020 nM,15.8,C=CC(=O)Nc1cc(Nc2cc(-c3ccc4ncsc4c3)ncn2)c(OC)cc1N1CCN(CCN(C)C)CC1 [compound 250],81.9
12.5 nM,7 nM,1100 nM,42.6,C=CC(=O)Nc1cc(Nc2cc(-c3ccc4ncsc4c3)ncn2)c(OC)cc1NCCN(C)C [compound 251],88.2
16.1 nM,29.3 nM,1040 nM,14.6,C=CC(=O)Nc1cc(Nc2cc(-c3ccc4c(cnn4C)c3)ncn2)c(OC)cc1N1CCN(CCO)CC1 [compound 267],64.4
